Assays:
Type in all cases: in vivo, C57BL/6 mice
[1] = tested on: bleomycin-induced pulmonary fibrosis model; test: Early pulmonary fibrosis: bleomycin-induced model, dosing from one week after modelling; conditions: early pulmonary fibrosis, 120 mg/kg/d intragastric, 14 days, from one week after model; for Leucocyte / Lymphocyte / Neutrophil: blood, Day 15, twice every day; for Ashcroft scores: lung tissue HE staining
[2] = tested on: bleomycin-induced pulmonary fibrosis model; test: Advanced pulmonary fibrosis: bleomycin-induced model, dosing from three weeks after modelling; conditions: advanced pulmonary fibrosis, 120 mg/kg/d intragastric, 14 days, from three weeks after model; for Leucocyte / Lymphocyte / Neutrophil: blood, Day 15, twice every day; for Ashcroft scores: lung tissue HE staining
[3] = tested on: Streptococcus pneumoniae-induced pulmonary fibrosis model; test: Streptococcus pneumoniae-induced pulmonary fibrosis model; conditions: Streptococcus pneumoniae + bleomycin, 120 mg/kg/d intragastric, 14 days; for Leucocyte / Lymphocyte / Neutrophil: blood, Day 15, 3 times every day, from one week after model; for Ashcroft scores: lung tissue HE staining
[4] = tested on: influenza B virus-induced pulmonary fibrosis model (influenza B (H7N9) virus); conditions: 120 mg/kg/d intragastric, 14 days; for Ashcroft scores: influenza B virus + bleomycin, lung tissue HE; for IL-1β / NF-κB / TNF-α / IL-6: serum, from two weeks after model; for IL-1β / NF-κB / TNF-α: influenza B (H7N9) + bleomycin; for IL-6: influenza B + bleomycin
[5] = tested on: coronavirus-induced pulmonary fibrosis model (HcoV-OC43); test: Coronavirus-induced pulmonary fibrosis model; conditions: 120 mg/kg/d intragastric, 14 days; for Ashcroft scores: coronavirus HcoV-OC43 + bleomycin, lung tissue HE; for IL-1β / IL-6 / NF-κB / TNF-α: serum, HcoV-OC43 + bleomycin, from two weeks after model
Description: Experimental method: an in-vivo coronavirus-induced pulmonary fibrosis model mice was established: C57BL/6 mice (with weights being 22-25 g) were randomly and evenly divided into a plurality of groups, including blank control group, model group, Nintedanib positive control group, hypoxanthine analogue A group, hypoxanthine analogue B group, hypoxanthine analogue C group, compound 1 group, compound 2 group . . . compound 12 group, with 9 mice in each group. On Day 1, the mice in the blank control group were instilled with normal saline nasally, and the mice in other groups were all infected with HcoV-OC43 coronavirus strains (30 μL) through nasal instillation. On Day 2, the mice received 5 mg/kg bleomycin through tracheas to induce their pulmonary fibrosis. After the model was established for two weeks, the mice in each group were intragastrically administrated for intervention for consecutive 14 days; the mice in blank control group and model group intragastrically received the same dosage of the normal saline as those in drug groups; the mice in Nintedanib positive control group received Nintedanib (120 mg/kg); the mice in hypoxanthine analogue A group, hypoxanthine analogue B group and hypoxanthine analogue C group respectively received hypoxanthine analogue A (120 mg/kg/d), hypoxanthine analogue B (120 mg/kg/d) and hypoxanthine analogue C (120 mg/kg/d); and the mice in compound 1 group, compound 2 group . . . compound 12 group respectively received compound 1 (120 mg/kg/d), compound 2 (120 mg/kg/d) . . . compound 12 (120 mg/kg/d) prepared in example 1. After administration for consecutive 14 days, the mice were observed every day, and their weights and death conditions were recorded. After administration, blood was taken from eyeballs for immediately detecting the expression levels of NF-κB, TNF-α, IL-1 and IL-6 in serum, and lung tissues were taken for HE detection and Ashcroft scoring.

[6] = tested on: mycoplasma-induced pulmonary fibrosis model (MPFH strain); test: Mycoplasma-induced pulmonary fibrosis model; conditions: 120 mg/kg/d intragastric, 14 days; for Leucocyte / Lymphocyte / Neutrophil: MPFH mycoplasma + bleomycin, once a day, from two weeks after model; for Ashcroft scores: mycoplasma + bleomycin, lung tissue HE
Description: Experimental method: an in-vivo mycoplasma-induced pulmonary fibrosis model was established: C57BL/6 mice (with weights being 22-25 g) were randomly and evenly divided into a plurality of groups, including blank control group, model group, Nintedanib positive control group, hypoxanthine analogue A group, hypoxanthine analogue B group, hypoxanthine analogue C group, compound 1 group, compound 2 group . . . compound 12 group, with 9 mice in each group. Before a model was established, the mice were anesthetized with diethyl ether. In addition to that the mice in blank control group with instilled with 100 μL of normal saline nasally, the mice in other groups with slowly instilled with an equal volume of a MPFH strain solution (containing 1×10^7 mL^−1 MPFH strain) to the nasal cavity, for consecutive 3 days, and inhaled the MPFH strain solution into bronchi. After instillation with mycoplasmas through tracheas, the mice received 5 mg/kg bleomycin through tracheas to induce their pulmonary fibrosis. After the model was established for two weeks, the mice in each group were intragastrically administrated for intervention for consecutive 14 days; the mice in blank control group and model group intragastrically received an equal dosage of normal saline as those in drug groups; the mice in Nintedanib positive control group received Nintedanib (120 mg/kg); the mice in hypoxanthine analogue A group, hypoxanthine analogue B group and hypoxanthine analogue C group respectively received hypoxanthine analogue A (120 mg/kg/d), hypoxanthine analogue B (120 mg/kg/d) and hypoxanthine analogue C (120 mg/kg/d); and the mice in compound 1 group, compound 2 group . . . compound 12 group respectively received compound 1 (120 mg/kg/d), compound 2 (120 mg/kg/d) . . . compound 12 (120 mg/kg/d) prepared in example 1. The mice were administrated once a day to be treated for consecutive 14 days. The mice were observed every day, and their weights and death conditions were recorded. On the last day of administration, the mice were sacrificed; and blood was taken from eyeballs and kept at −80° C. for detecting blood routine indexes. Meanwhile, lungs were lavaged with normal saline and separated to collect lavage fluids for detecting counts and classes of leucocytes; and lung tissues were taken for HE straining and Ashcroft scoring on the extent of pulmonary fibrosis.

Compound	Leucocyte [1]	Lymphocyte [1]	Neutrophil [1]	Ashcroft scores [1]	Leucocyte [2]	Lymphocyte [2]	Neutrophil [2]	Ashcroft scores [2]	Leucocyte [3]	Lymphocyte [3]	Neutrophil [3]	Ashcroft scores [3]	Ashcroft scores [4]	IL-1β [4]	NF-κB [4]	TNF-α [4]	IL-6 [4]	Ashcroft scores [5]	IL-1β [5]	IL-6 [5]	other results
CCOc1ncnc2c1ncn2C(C)C [Compound 8]	4.27 10^9/L	5.31 10^9/L	1.26 10^9/L	1.09	4.59 10^9/L	5.73 10^9/L	1.42 10^9/L	1.21	6.68 10^9/L	8.09 10^9/L	1.94 10^9/L	1.31	1.16	27.1 pg/mL	31.9 pg/mL	73.5 pg/mL	66.5 pg/mL	1.29	36.6 pg/mL	66.7 pg/mL	NF-κB [5]: 28.3 pg/mL; TNF-α [5]: 56.1 pg/mL; Leucocyte [6]: 7.26 10^9/L; Lymphocyte [6]: 72.52 10^9/L; Neutrophil [6]: 23.62 10^9/L; Ashcroft scores [6]: 1.26
CCCOc1ncnc2c1ncn2C(C)C [Compound 9]	4.14 10^9/L	5.23 10^9/L	1.33 10^9/L	1.12	4.69 10^9/L	5.69 10^9/L	1.46 10^9/L	1.11	6.73 10^9/L	7.11 10^9/L	1.89 10^9/L	1.33	1.23	26.9 pg/mL	30.8 pg/mL	73.8 pg/mL	66.1 pg/mL	1.31	35.9 pg/mL	64.3 pg/mL	NF-κB [5]: 24.4 pg/mL; TNF-α [5]: 55.1 pg/mL; Leucocyte [6]: 6.79 10^9/L; Lymphocyte [6]: 73.19 10^9/L; Neutrophil [6]: 22.06 10^9/L; Ashcroft scores [6]: 1.38
CC(C)Oc1ncnc2c1N(C(C)C)CN2C(C)C [Compound 10]	4.17 10^9/L	5.27 10^9/L	1.21 10^9/L	1.17	4.26 10^9/L	5.71 10^9/L	1.38 10^9/L	1.16	7.01 10^9/L	7.33 10^9/L	1.99 10^9/L	1.38	1.25	27.8 pg/mL	31.2 pg/mL	74.7 pg/mL	65.5 pg/mL	1.41	37.7 pg/mL	68.2 pg/mL	NF-κB [5]: 25.3 pg/mL; TNF-α [5]: 56.2 pg/mL; Leucocyte [6]: 6.18 10^9/L; Lymphocyte [6]: 72.54 10^9/L; Neutrophil [6]: 21.11 10^9/L; Ashcroft scores [6]: 1.45
CC(=O)Oc1ncnc2c1ncn2C(C)C [Compound 11]	4.09 10^9/L	5.20 10^9/L	1.10 10^9/L	1.08	4.22 10^9/L	5.57 10^9/L	1.39 10^9/L	1.07	6.29 10^9/L	6.21 10^9/L	1.81 10^9/L	1.28	1.15	26.8 pg/mL	31.6 pg/mL	73.5 pg/mL	65.3 pg/mL	1.29	35.4 pg/mL	63.3 pg/mL	NF-κB [5]: 25.1 pg/mL; TNF-α [5]: 52.1 pg/mL; Leucocyte [6]: 6.70 10^9/L; Lymphocyte [6]: 73.25 10^9/L; Neutrophil [6]: 22.47 10^9/L; Ashcroft scores [6]: 1.50
